Experimental data reported in patent publication US20260176313A1, “TGF-BETA-1 VACCINE” (IO BIOTECH APS, priority 2022, published 2026).

Columns and labels:
[1] = test system: PBMCs from healthy donors; assay: In vitro IFNγ ELISPOT screening for immune responses to TGFb-1 peptides; assay type: cell-based, human; conditions: for Positive Donors (out of 14): donors with significant response: Fisher test <0.01, ratio peptide:control >2, background subtracted spots >25; for Median Spots: median of background subtracted average spots for each donor across all 14 donors, 7 days after peptide stimulation
Description: FIG. 6. IFNγ ELISPOT identifies strong and frequent immune responses. Immune responses to TGFb-1 peptides were identified in PBMCs from 14 healthy donors. PBMCs were stimulated with the indicated TGFb-1 peptides and responses were analyzed after seven days by IFNγ ELISPOT. Significant responses (*) were defined by a Fisher exact P value<0.01, a ratio of peptide to control spots>2, and background subtracted spots>25. Peptides that elicited responses in the greatest number of donors were subsequently tested for the specificity of the response to TGFb-1.
(§1) For in vitro ELISPOT, peripheral blood […] cells (PBMCs) from healthy donors were pulsed with 20 μM of TGFb-derived peptides and 20 U/ml IL-2 in 24-well plates for 7 days before being used in an ELISPOT assay. The cells were placed in 96-well nitrocellulose ELISPOT plates (MultiScreen IP Filter Plate, MSIPN4W50; Millipore) pre-coated with interferon gamma (IFNγ) capture antibody (Mabtech). TGFb peptides are added to a final concentration of 5 μM, control stimulation (DMSO) added to control wells and plates are incubated at 37° C. for 16-20 hours. After the incubation the cells were washed off and secondary biotinylated Ab (Mabtech) was added for 2 hours at room temperature. Unbound secondary antibody was washed off and streptavidin conjugated alkaline phosphatase (AP) (Mabtech) was added for 1 hour at room temperature. Unbound conjugated enzyme was washed off and the assay was developed by adding BCIP/NBT substrate (Mabtech). Developed ELISPOT plates were analysed on CTL ImmunoSpot S6 Ultimate-V analyzer using Immunospot software v5.1.
(§2) In order to identify whether the low homology peptides selected based on sequence alignment were able to elicit immune responses in humans, the IFNγ ELISPOT assay was used. PBMCs from a total of 14 healthy donors were used to screen for immune responses. PBMCs were exposed to each peptide individually to induce a peptide-specific immune response and proliferation of peptide-specific T cells. Seven days later, the frequency of peptide-specific T cells were assayed by IFNγ ELISPOT. IFNγ ELISPOT identified several peptides that elicited strong (number of spots) and frequent (number of donors) immune responses, as shown in FIG. 6. Five peptides were selected on this basis (see Table 4). These five peptides were subsequently assayed for TGFb-1-selectivity by assaying for cross-reactive immune responses to TGFb-2 and TGFb-3 peptides in the IFNγ ELISPOT assay, as shown in FIG. 7 and FIG. 8.

[2] = test system: PBMCs from healthy donors; assay: IFNγ ELISPOT recall assay for cross-reactive responses to homologous TGFb-2 and TGFb-3 peptides; assay type: cell-based, human; conditions: for TGFb-1 selectivity / cross-reactivity of IFNγ ELISPOT immune response to homologous TGFb-2 and TGFb-3 peptides: donor PBMCs stimulated with TGFb-1 peptide, recall after seven days
Description: FIG. 7A-B. IFNγ ELISPOT to identify TGFb-1-selective immune responses. Donor PBMCs were stimulated with the indicated TGFb-1 peptides (Pep01-1, Pep04-1, Pep05-1, Pep08-1, Pep09-1 and Pep12-1) and after seven days were tested for a recall response by IFNγ ELISPOT assay using the same TGFb-1 peptide, or homologous TGFb-2 peptide (i.e. Pep01-2, Pep04-2, Pep05-2, Pep08-2, Pep09-2 or Pep12-2) or TGFb-3 peptide (i.e. Pep01-3, Pep04-3, Pep05-3, Pep08-3, Pep09-3 or Pep12-3). The highly homologous peptides Pep12-1, Pep12-2 and Pep12-3 were included as positive controls for detecting cross-reactive immune responses to TGFb-2 and TGFb-3. In FIG. 7A, for each peptide tested, boxplots on the left hand side correspond to responses using the same TGFb-1 peptide, boxplots in the middle correspond to responses using homologous TGFb-2 peptides and boxplots on the right hand side correspond to responses using homologous TGFb-3 peptides.
FIG. 8. IFNγ ELISPOT to identify TGFb-1-selective immune responses. The same data shown in FIG. 7 were plotted to show responses for individual peptides and donors. […] Significant responses (*) were defined by a Fisher exact P value<0.01, a ratio of peptide to control spots>2, and background subtracted spots>25.
as §1, §2

[3] = test system: mice; assay: IFNγ ELISPOT assay of immune responses in mice vaccinated with synthetic long peptides; assay type: in vivo, mouse; conditions: mice vaccinated with SLP; recall with minimal class I / class II peptides
Description: FIG. 9. TGFb-1 vaccine induces robust immune responses. Mice were vaccinated with two different synthetic long peptides (SLPs) and immune responses were analyzed by IFNγ ELISPOT assay. ELISPOT responses for individual mice are shown. Results for control peptides are clearly indicated.
(§3) For the MC38 tumor study, female C56/BL6 mice (Tacomic) were vaccinated with 100 μg of peptide (SEQ ID: 31 or SEQ ID NO: 34) prepared in DMSO and diluted in water to a total volume of 50 μl (per injection) before mixing with an equal volume of Montanide ISA51 VG ST adjuvant to form an emulsion. The vaccine formulation was administered subcutaneously (s.c.) at the tail base on Days 0, 7, and 14. MC38 tumor cells (2e5 per injection) were administered s.c. in the flank on day 0. Every 3 to 4 days, tumors were measured with a Vernier caliper and the tumor volume was calculated using the formula: V=L×W2/2, where V is tumor volume, L is the length of tumor (longer axis), and W is the width of the tumor (shorter axis).
A murine TGFb-1 vaccine was developed based on synthetic long peptides (SLPs) encoding predicted MHC class I and class II epitopes (SEQ ID NOs: 31-36 in Table 1 below). Pre-clinical studies of anti-TGFb therapies often fail to show any impact on tumor growth when administered as a monotherapy.

[4] = test system: splenocytes loaded with the assay peptide (SLP1_Ib); assay: In vivo cytotoxicity assay; design: species or system mouse; conditions: analysed 18 hours after i.v. injection of labeled splenocytes
Description: FIG. 11. TGFb-1 vaccine promotes targeted in vivo cell killing. An in vivo cytotoxicity assay was used to compare cell killing in mice vaccinated with SLP1 versus the class I epitope SLP1_Ib (SIYMFFNT). Vaccinated mice (duplicates) were injected with differentially labeled splenocytes loaded with the assay peptide (SLP1_Ib) or a control peptide. Cell killing was determined by comparing the recovery of the splenocytes using control-peptide-loaded splenocytes as an internal control for cell recovery. OVA peptide was included as a positive control.
The in vivo cytotoxicity assay was performed by injecting peptide-loaded splenocytes from untreated donor mice into vaccinated mice. Freshly isolated splenocytes were incubated with 5 μM peptide in media (RPMI, 10% Fetal Bovine Serum) for 1 hour at 37 C. Splencoytes were loaded with assay peptide (SLP1_Ib) or control peptide (P53, AIYKKSQHM) separately. […] Cell killing was analyzed after 18 hours by isolating splenocytes from injected mice and comparing the recovery of FarRed and Violet labeled cells by flow cytometry. Specific killing of assay pulsed splenocytes was calculated as follows: […]

[5] = test system: MC38 tumor; assay: Analysis of tumor microenvironment (TME) by flow cytometry in MC38 tumor study; assay type: in vivo, mouse; conditions: vaccinated Days 0, 7, 14, termination day 21
Description: FIG. 10A-D. TGFb-1 vaccine drives derived immune permissive changes in the TME. Tumor weight was compared between groups at experiment termination (day 21). TGFB-1 expression was assayed by latency associated peptide (LAP) staining.
as §3
Freshly isolated tumors were dissociated by collagenase digestion to yield a single cell suspension for flow cytometry analysis. Approximately 1 million cells were stained for analysis by flow cytometry using a Symphony Al flow cytometer (BD, Becton Dickinson) with the following antibodies, anti-mouse LAP BV421 (BD, 565638), anti-mouse CD4 BV605 (BD, 743156) and anti-mouse CD8 BV786 (BD, 563332). Data analysis was performed using FlowJo software.

| Sequence | Positive Donors (out of 14) [1] | Median Spots [1] | TGFb-1 selectivity / cross-reactivity of IFNγ ELISPOT immune response to homologous TGFb-2 and TGFb-3 peptides [2] | also measured |
| --- | --- | --- | --- | --- |
| DINGFTTGRRGDLATIHGMNRPFLLL [Pep07-1, polypeptide fragment of human TGFb-1, positions 235-260] | 5 | 12 | – | – |
| DMPPFFPSENAIPPTFYRPYFRIVREDVSAMEKNASNLV (DMPPFFPSENAIPPTFYRPYFRIVRFDVSAMEKNASNLV) [Pep01-2, homologous polypeptide fragment of human TGFb-2, positions 107-145, reference compound] | – | – | observed only once | Number of other donors in which cross reactivity was not observed ([2]; donors tested with Pep01-1/Pep01-2 peptide combination): 7 |
| DSRDNTLQVDINGFTTGRRGDLATIHGMNRPFLLL [Pep06-1, polypeptide fragment of human TGFb-1, positions 226-260] | 5 | 25 | – | – |
| KDISHSIYMFFNTSDIREAVPEPPL [SLP1] | – | – | – | Immune response by IFNγ ELISPOT in vaccinated mice [3]: recognition of minimal peptides encoding class I and class II epitopes; Cytotoxic activity (specific killing) toward SLP1_Ib-loaded splenocytes in vaccinated mice [4]: results in cytotoxic activity toward cells loaded with the class I peptide antigen SLP1_Ib |
| LMVETHNEIYDKFKQSTHSIYMFF [Pep03-1, polypeptide fragment of human TGFb-1, positions 112-135] | 6 | 16 | – | – |
| LMVETHNEIYDKFKQSTHSIYMFFNTSEL [Pep02-1, polypeptide fragment of human TGFb-1, positions 112-140] | 6 | 28 | – | – |
| LMVETHNEIYDKFKQSTHSIYMFFNTSELREAVPEPVLLS [Pep01-1, polypeptide fragment of human TGFb-1, positions 112-151] | 9 | 67 | strong and frequent immune responses in healthy donors that are selective to TGFb-1 | – |
| REAVPEPVLLSRAELRLLRL [Pep09-1, polypeptide fragment of human TGFb-1, positions 141-160] | 7 | 37 | strong and frequent immune responses in healthy donors that are selective to TGFb-1 | – |
| REAVPEPVLLSRAELRLLRLKLKVEQHVE [Pep11-1, polypeptide fragment of human TGFb-1, positions 141-169] | 5 | 14 | – | – |
| SIYMFFNT [SLP1_Ib, TGFb-1 positions 130-137] | – | – | – | Cytotoxic activity (specific killing) toward SLP1_Ib-loaded splenocytes in vaccinated mice [4]: cytotoxic activity was higher |
| SLDTQYSKVLALYNQHNPGASASP [SLP2] | – | – | – | CD4+ T cell infiltration in TME [5]: significantly enhanced; CD8+ T cell infiltration in TME [5]: remained unchanged; Immune response by IFNγ ELISPOT in vaccinated mice [3]: mainly induced class II response |
| TGRRGDLATIHGMNRPFLLL [Pep08-1, polypeptide fragment of human TGFb-1, positions 241-260] | 7 | 22 | strong and frequent immune responses in healthy donors that are selective to TGFb-1 | – |
| VKRKRIEAIRGQILSKLRLA [Pep12-1, reference compound] | – | – | induced immune responses that cross-reacted with homologous TGFb-2 and TGFb-3 peptides | TGFb-1 selectivity / cross-reactivity of IFNγ ELISPOT immune response to homologous TGFb-2 and TGFb-3 peptides ([2]; listed as Pep12): displayed cross-reactivity in all donors that exhibited significant responses to the TGFb-1 homolog |
| YDKFKQSTHSIYMFFNTSEL [Pep05-1, polypeptide fragment of human TGFb-1, positions 121-140] | 7 | 23 | strong and frequent immune responses in healthy donors that are selective to TGFb-1 | – |
| YDKFKQSTHSIYMFFNTSELREAVPEPVLLS [Pep04-1, polypeptide fragment of human TGFb-1, positions 121-151] | 7 | 34 | strong and frequent immune responses in healthy donors that are selective to TGFb-1 | – |
| YMFFNTSELREAVPEPVLLSRAELRLLRLKLKVEQHVE [Pep10-1, polypeptide fragment of human TGFb-1, positions 132-169] | 5 | 8 | – | – |
